From paper PMC10004634 (PLOS ONE, 2023)

What was measured:
PKNB(M.tuberculosis) = PKNB(M.tuberculosis) (Mycobacterium tuberculosis, UniProt P9WI81); assay: biochemical; conditions: read-out: Percent control / Ibrutinib
TMD8 cells [1] = assay: Western blot of IRF4, BCL6, c-MYC protein expression; assay type: cell-based, human; conditions: 24 h, 1 μM
Procedure: (§1) After culturing, cells were harvested and lysed with cell lysis buffer (Cell Signaling Technology, Inc.) containing 1 mM AEBSF (Calbiochem, #101500). As a positive control of BTK autophosphorylation for western blot analysis, TMD8 cells were treated with hydrogen peroxide (H2O2; final concentration: 6 mM) for 10 min, harvested as a control sample, and then lysed with the cell lysis buffer.
Each mixture of cells and cell lysis buffer was incubated on ice for 5 min, then centrifuged at 13400 × g and 4°C for 10 min. Total lysates were loaded on 4%–12% SDS-PAGE (Bio-Rad) and transferred to a polyvinylidene difluoride (PVDF) membrane (Immobilon-P Transfer Membrane, Millipore Corporation). The blot was incubated in Tris-buffered saline with Tween 20 (TBS-T, Cell Signaling Technology, Inc.) containing 2 w/v% ECL Advance Blocking Agent (GE Healthcare Life Sciences, b) for 1 h at room temperature. The blocked PVDF membranes were immersed in TBS-T and washed three times with shaking at room temperature for 10 min. The membrane was incubated with primary antibody in TBS-T containing 2 w/v% ECL Advance Blocking Agent with gentle agitation overnight at 5°C in a cold storage room or for 1 h at room temperature. […] Lumino-image analyzer (LAS-1000 Plus system, Fuji Photo Film Co., Ltd.) and Image Reader LAS-1000 Lite version 1.3 (Fuji Photo Film Co., Ltd.) were used to visualize bands. […]

[2] = tested on: other BioMAP systems such as the T-cell and fibroblast activation systems; assay: BioMAP Diversity PLUS profiling, other evaluation systems; assay type: cell-based, human; conditions: 120, 370, 1100, 3300 nM
Procedure: In brief, cultures with one or more primary cell types from healthy human donors were treated with sets of stimulators specific to the cell subsets, and the optimized biomarker readouts for each system were measured by ELISA and other techniques, as listed in S1 Table. The assays included positive and negative controls as well as vehicle control. Results are presented as the log-transformed ratio of biomarker readouts for tirabrutinib-treated samples to vehicle controls.

U-2932 cells = assay: Western blot of BTK downstream signaling (p-PLCγ2, p-ERK1/2, p-AKT, p-IκBα); assay type: cell-based, human
Procedure: as §1
(§2) Each mixture of cells and cell lysis buffer was incubated on ice for 5 min, then centrifuged at 13400 × g and 4°C for 10 min. Total lysates were loaded on 4%–12% SDS-PAGE (Bio-Rad) and transferred to a polyvinylidene difluoride (PVDF) membrane (Immobilon-P Transfer Membrane, Millipore Corporation). The blot was incubated in Tris-buffered saline with Tween 20 (TBS-T, Cell Signaling Technology, Inc.) containing 2 w/v% ECL Advance Blocking Agent (GE Healthcare Life Sciences, b) for 1 h at room temperature. The blocked PVDF membranes were immersed in TBS-T and washed three times with shaking at room temperature for 10 min. The membrane was incubated with primary antibody in TBS-T containing 2 w/v% ECL Advance Blocking Agent with gentle agitation overnight at 5°C in a cold storage room or for 1 h at room temperature. Rabbit monoclonal anti- phosphorylated BTK (Tyr-223) antibody (p-BTK; Novus Biologicals, #NB100-79907), rabbit monoclonal BTK antibody (Cell Signaling Technology, Inc., #3533), rabbit polyclonal phosphorylated AKT (Ser-473) antibody (p-AKT; Cell Signaling Technology, Inc., #9271), rabbit monoclonal AKT (pan) (C67E7) antibody (Cell Signaling Technology, Inc., #4691), rabbit polyclonal phosphorylated p44/42 MAPK (ERK1/2) (Thr-202/Tyr-204) antibody (p-ERK1/2; Cell Signaling Technology, Inc., #9101), rabbit monoclonal p44/42 MAPK (ERK1/2) (137F5) antibody (Cell Signaling Technology, Inc., #4695), rabbit monoclonal phosphorylated PLCγ2 (Tyr-759) (E9E9Y) antibody (p-PLCγ2; Cell Signaling Technology, Inc., #50535), rabbit monoclonal PLCγ2 (E5U4T) antibody (Cell Signaling Technology, Inc., #55512), mouse monoclonal phosphorylated IκBα (Ser-32/36) (5A5) antibody (p-IκBα; Cell Signaling Technology, Inc., #9246), rabbit monoclonal IκBα (44D4) antibody (Cell Signaling Technology, Inc., #4812), rabbit polyclonal phosphorylated PKCβ (phospho-Thr-641) antibody (p-PKCβ; Signalway Antibody LLC, #11172), rabbit monoclonal IRF4 (D9P5H) antibody (Cell Signaling Technology, Inc., #15106), rabbit monoclonal BCL6 (D65C10) antibody (Cell Signaling Technology, Inc., #5650), rabbit monoclonal c-MYC (D84C12) antibody (Cell Signaling Technology, Inc., #5605), and rabbit monoclonal GAPDH (14C10) antibody (Cell Signaling Technology, Inc., #2118) were used. The PVDF membranes were immersed in TBS-T and washed three times with shaking at room temperature for 10 min, then incubated with secondary antibody with shaking for 1 h at room temperature. The secondary antibody used was anti-rabbit-IgG horseradish peroxidase (HRP)-linked antibody (Cell Signaling Technology, #7074) or goat anti-rabbit immunoglobulins/HRP (Dako, P0448). The PVDF membranes were washed three times with shaking at room temperature for 10 min and were treated with ECL^TM Advance Western Blotting Detection Kit (GE Healthcare Life Sciences, #RPN2135) for chemiluminescent detection according to the manufacturer’s instruction. Lumino-image analyzer (LAS-1000 Plus system, Fuji Photo Film Co., Ltd.) and Image Reader LAS-1000 Lite version 1.3 (Fuji Photo Film Co., Ltd.) were used to visualize bands. The densitometry analysis described the ratio of phosphorylated to total BTK protein. […] 5.04 (GraphPad Software, Inc.).

TMD8 cells [3] = assay: as above; assay type: cell-based, human
Procedure: as §1, §2

CSK = CSK (Homo sapiens, UniProt P41240); assay: KinAffinity cell-based binding assay using PBMC; parameters: purchased Carna Biosciences Inc
CSK, sequence (P41240 whole entry): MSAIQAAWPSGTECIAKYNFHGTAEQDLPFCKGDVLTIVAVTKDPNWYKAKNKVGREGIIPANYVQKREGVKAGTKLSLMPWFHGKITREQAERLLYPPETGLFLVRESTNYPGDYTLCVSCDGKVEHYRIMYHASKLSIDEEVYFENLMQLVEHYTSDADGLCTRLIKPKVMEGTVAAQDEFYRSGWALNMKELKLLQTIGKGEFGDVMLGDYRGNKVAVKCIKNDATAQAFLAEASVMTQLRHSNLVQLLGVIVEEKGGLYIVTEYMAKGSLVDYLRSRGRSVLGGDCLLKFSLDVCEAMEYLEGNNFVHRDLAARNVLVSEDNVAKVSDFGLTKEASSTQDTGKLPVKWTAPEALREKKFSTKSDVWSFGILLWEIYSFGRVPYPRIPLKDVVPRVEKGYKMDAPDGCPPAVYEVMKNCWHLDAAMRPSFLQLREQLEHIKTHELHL

PFPK5(P.falciparum) = biological target: T1, PFPK5(P.falciparum) (Plasmodium falciparum, UniProt P61075); assay: biochemical; conditions: read-out: Percent control / Zanubrutinib
T1 construct: gene MAL13P1.279
T1 sequence (P61075 whole entry): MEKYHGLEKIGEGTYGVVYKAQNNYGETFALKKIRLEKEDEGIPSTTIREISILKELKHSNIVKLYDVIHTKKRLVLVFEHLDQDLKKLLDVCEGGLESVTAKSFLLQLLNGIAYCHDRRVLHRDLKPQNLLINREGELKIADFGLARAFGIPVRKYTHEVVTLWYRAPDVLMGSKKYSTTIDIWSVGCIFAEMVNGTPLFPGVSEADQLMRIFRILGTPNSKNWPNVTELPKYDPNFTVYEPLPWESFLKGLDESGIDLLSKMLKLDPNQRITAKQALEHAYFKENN

ERBB2 = ERBB2 (Homo sapiens, UniProt P04626); assay: Z'-Lyte kinase inhibition assay; assay type: biochemical; parameters: purchased Thermo Fisher Scientific (Invitrogen Z'-Lyte service); conditions: 60 min preincubation
ERBB2, sequence (P04626 23-1255): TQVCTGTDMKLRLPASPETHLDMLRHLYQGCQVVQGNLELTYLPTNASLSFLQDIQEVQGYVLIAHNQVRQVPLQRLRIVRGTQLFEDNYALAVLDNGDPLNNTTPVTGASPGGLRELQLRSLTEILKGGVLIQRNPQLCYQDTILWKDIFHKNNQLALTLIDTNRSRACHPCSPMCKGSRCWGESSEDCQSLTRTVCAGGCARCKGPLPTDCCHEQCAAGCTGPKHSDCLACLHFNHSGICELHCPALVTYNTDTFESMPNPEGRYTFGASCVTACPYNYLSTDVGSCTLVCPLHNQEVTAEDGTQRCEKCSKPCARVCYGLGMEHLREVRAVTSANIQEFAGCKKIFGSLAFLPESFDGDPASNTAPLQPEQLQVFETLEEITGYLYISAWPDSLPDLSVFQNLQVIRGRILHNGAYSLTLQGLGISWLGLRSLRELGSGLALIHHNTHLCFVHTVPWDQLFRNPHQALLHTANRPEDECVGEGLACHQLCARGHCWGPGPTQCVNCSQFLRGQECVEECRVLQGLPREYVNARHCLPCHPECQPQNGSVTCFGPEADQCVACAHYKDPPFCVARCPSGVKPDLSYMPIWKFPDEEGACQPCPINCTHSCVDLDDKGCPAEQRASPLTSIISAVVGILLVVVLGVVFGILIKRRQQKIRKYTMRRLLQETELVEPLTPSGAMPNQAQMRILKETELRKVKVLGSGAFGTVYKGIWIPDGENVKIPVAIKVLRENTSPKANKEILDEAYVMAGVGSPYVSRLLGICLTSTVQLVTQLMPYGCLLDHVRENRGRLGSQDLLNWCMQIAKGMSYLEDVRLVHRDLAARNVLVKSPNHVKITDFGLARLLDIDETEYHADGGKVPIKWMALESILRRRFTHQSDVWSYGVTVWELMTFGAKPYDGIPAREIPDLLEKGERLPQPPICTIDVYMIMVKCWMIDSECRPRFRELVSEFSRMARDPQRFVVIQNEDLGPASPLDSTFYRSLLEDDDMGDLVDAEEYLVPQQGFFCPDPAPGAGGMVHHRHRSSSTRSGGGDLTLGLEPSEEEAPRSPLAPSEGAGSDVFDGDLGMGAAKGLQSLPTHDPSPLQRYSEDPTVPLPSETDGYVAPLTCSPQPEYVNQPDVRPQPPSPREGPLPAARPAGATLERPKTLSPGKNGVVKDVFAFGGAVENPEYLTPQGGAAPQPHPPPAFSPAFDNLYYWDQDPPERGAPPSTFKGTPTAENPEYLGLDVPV
Procedure: In all the assays, each test compound was preincubated with peptide/kinase mixture or kinase/antibody mixture for 60 min at room temperature before adding the ATP solution or AlexaFluor labeled Tracer to initiate the 60-min incubation of the reactants.

PKNB(M.tuberculosis), sequence (P9WI81 whole entry, looked up): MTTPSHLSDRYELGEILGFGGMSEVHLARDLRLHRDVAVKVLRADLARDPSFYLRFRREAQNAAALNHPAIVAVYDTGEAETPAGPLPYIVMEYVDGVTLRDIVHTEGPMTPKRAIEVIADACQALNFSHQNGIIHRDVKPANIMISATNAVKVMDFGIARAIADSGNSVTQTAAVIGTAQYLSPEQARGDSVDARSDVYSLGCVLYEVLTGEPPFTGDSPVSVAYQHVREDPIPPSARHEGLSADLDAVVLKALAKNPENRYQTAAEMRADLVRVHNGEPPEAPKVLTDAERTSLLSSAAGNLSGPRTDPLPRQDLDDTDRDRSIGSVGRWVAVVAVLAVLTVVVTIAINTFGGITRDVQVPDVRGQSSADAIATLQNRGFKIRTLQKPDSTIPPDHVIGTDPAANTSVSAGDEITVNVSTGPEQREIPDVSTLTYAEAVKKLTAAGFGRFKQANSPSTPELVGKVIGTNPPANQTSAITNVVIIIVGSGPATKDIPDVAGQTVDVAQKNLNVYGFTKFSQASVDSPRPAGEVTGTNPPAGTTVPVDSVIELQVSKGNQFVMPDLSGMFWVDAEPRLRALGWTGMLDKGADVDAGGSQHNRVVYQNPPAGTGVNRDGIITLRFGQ

Compound: C=CC(=O)N1CCC[C@@H](n2nc(-c3ccc(Oc4ccccc4)cc3)c3c(N)ncnc32)C1 [Ibrutinib]
- remaining activity at 0.3 µM (PKNB(M.tuberculosis)): 93%

Compound: CC#CC(=O)N1CC[C@@H](n2c(=O)n(-c3ccc(Oc4ccccc4)cc3)c3c(N)ncnc32)C1 [Tirabrutinib]
- BCL6 protein expression (TMD8 cells [1]): not changed
- IRF4 protein expression (TMD8 cells [1]): downregulation
- MYC protein expression (TMD8 cells [1]): downregulation
- effect in other BioMAP evaluation systems [2]: no significant effect
- AKT signaling (p-AKT Ser-473) (U-2932 cells; 1 μM): did not indicate inhibition
- p-IκBα at S32/36 (U-2932 cells; 1 μM, 4 h): inhibited
- p-ERK (U-2932 cells; 1 h, 10-300 nM): not clear
- phosphorylation of PLCγ2 at Tyr-759 (U-2932 cells; 1 h, 10-300 nM): inhibited
- p-ERK (U-2932 cells; 4 h, 10-300 nM): significant inhibition
- p-AKT at Ser-473 (TMD8 cells [3]; 1 μM): inhibition
- p-IκBα at S32/36 (TMD8 cells [3]; 1 μM, 4 h): inhibited
- p-ERK (TMD8 cells [3]; 1 h, 10-300 nM): inhibited
- phosphorylation of PLCγ2 at Tyr-759 (TMD8 cells [3]; 1 h, 10-300 nM): inhibited
- Kd (CSK): > 3000 nM

Compound: C=CC(=O)N1CCC([C@@H]2CCNc3c(C(N)=O)c(-c4ccc(Oc5ccccc5)cc4)nn32)CC1 [Zanubrutinib]
- remaining activity at 0.3 µM (PFPK5(P.falciparum)): 100%
- IC50 (ERBB2): 34.8 nM
